# From patent US20100028334A1, “COMPOSITIONS AND METHODS TO POTENTIATE COLISTIN ACTIVITY” (TRUSTEES OF BOSTON UNIVERSITY, priority 2006, published 2010)
# How the values were obtained:
# [1] = test system: wild-type, BW25113 E. coli cells; assay: colony formation unit (CFU) assay, parent strain; type: cell-based
# Experimental: (§1) The cells were incubated with colistin at a final concentration of 1.25 ug/ml. […] 10 ul of cells were plated onto LB agar [no colistin] plates. Number of colonies were counted after overnight incubation at 37 C. Colony count was normalized to get the same starting amount of cells for all strains. […] Log change in colony forming units per ml (CFU/ml) of wild-type, BW25113 E. coli cells (mean±s.d.) in presence or absence of colistin and potassium tellurite. Cell were grown in the absence or presence of colistin (1.25 ug/ml), potassium tellurite (1.6 ug/ml) alone and combined. […] Number of colonies were counted after overnight incubation at 37 C. Colony count was normalized to get the same starting amount of cells for all strains.
# For CFU measurements, 50 μl of stationary phase culture was inoculated into 5 ml of LB. 240 or 245 μl of the freshly diluted cells were placed into wells of a 96 well plate (Costar), 5 μl of colistin and or potassium tellurite were added into each well to obtain a final volume of 250 μl. The 96 well plates were then incubated at 37° C. At the 0, 3 and 6 hours time points, 20 μl of culture was collected and then serially diluted in 180 μl of 1×PBS, pH 7.2 (Fisher). A 10 μl portion of each dilution was plated onto LB agar (Fisher)), and the plate was incubated overnight at 37° C. Dilutions that yielded between 20 and 100 colonies were counted and CFU were normalized to reflect the same amount of cells for the starting cultures.
# The cells were grown with or without colistin, aliquots were taken at defined time points and serial dilution of the cells plated, colony count allowed to quantify the bactericidal effect of colistin. We noticed that the iscS and ubiH mutants were slow growers and formed small size colonies compared to the parent strain.
# [2] = test system: ubiH and iscS mutant E. coli cells; assay: colony formation unit (CFU) assay, deletion mutants; type: cell-based; details: colistin 1.25 ug/ml, FIG. 5A
# Experimental: as §1
# For CFU measurements, 50 μl of stationary phase culture was inoculated into 5 ml of LB. 240 or 245 μl of the freshly diluted cells were placed into wells of a 96 well plate (Costar), 5 μl of colistin and or potassium tellurite were added into each well to obtain a final volume of 250 μl. […] Dilutions that yielded between 20 and 100 colonies were counted and CFU were normalized to reflect the same amount of cells for the starting cultures.
# The cells were grown with or without colistin, aliquots were taken at defined time points and serial dilution of the cells plated, colony count allowed to quantify the bactericidal effect of colistin. […]
# [3] = cited from earlier work
# E. coli = assay: minimum inhibitory concentration (MIC) assay of colistin with mefloquine; type: cell-based
# Experimental: The efficacy of colistin in inhibiting the growth and/or suppressing survival of E. coli in the presence of one inhibitor, mefloquine was assessed in a minimum inhibitory concentration (MIC) assay.
# [4] = target: Escherichia coli H+-ATP synthase (Escherichia coli, UniProt P0AB98+P68699); details: cited from earlier work
# gram-positive bacteria = type: cell-based; details: used concurrently with colistin; data not shown
# [5] = after intravenous administration of colistimethate (sodium); cited from earlier work
# P aeruginosa = details: recent studies; cited from earlier work
# iscS mutant = details: Rojas and Vasquez, 2005; cited from earlier work
compound,measurement,setting,value
colistin,viability of parent strain compared to non treated cells,"[1]; colistin 1.25 ug/ml, 3 and 5 hour time points, FIG. 5A",no significant decrease in viability
same,viability (CFU) compared to non treated cells,"[1]; colistin 1.25 ug/ml, 3 hour time point, FIG. 5B",no significant decrease in viability
same,viability (CFU),"[1]; colistin 1.25 ug/ml, 5 hour time point, FIG. 5B",decrease in viability
same,colony detection,[2]; 5 hour time point,almost no colony detection
same,viability of mutants when exposed to colistin,[2],significant decrease in viability
same,stability in human plasma,[3],more stable than colistimethate
same,MIC of colistin,E. coli; in the absence of mefloquine,6.3 mg/L
same,MIC of colistin required to suppress growth,E. coli; in the presence of 50 μg/ml of mefloquine,6.3 mg/L
same,MIC of colistin required to suppress growth,E. coli; in the presence of 100 μg/ml of mefloquine,3.1 mg/L
same,MIC of colistin required to suppress growth,E. coli; in the presence of 200 μg/ml of mefloquine,0.8 mg/L
CC[C@H]1/C=C/C=C/C[C@@H](C)[C@H](O)[C@@](C)(O)C(=O)[C@@H](C)[C@H](O)[C@@H](C)C(=O)[C@@H](C)[C@H](O)[C@@H](C)/C=C/C(=O)O[C@@H]2[C@H](C)[C@H](CC1)O[C@]1(CC[C@H](C)[C@H](C[C@@H](C)O)O1)[C@H]2C [oligomycin],inhibition of ATP-driven proton transport and ATP hydrolysis,[4],weakly inhibited
venturicidin,inhibition of ATP-driven proton transport and ATP hydrolysis,[4],strongly inhibited
OC(c1cc(C(F)(F)F)nc2c(C(F)(F)F)cccc12)C1CCCCN1 (stereo not shown) [mefloquine],potentiation of colistin against gram-positive bacteria,gram-positive bacteria,potentiates colistin ability to decrease gram-positive bacteria
same,potentiation of colistin efficacy by mefloquine,E. coli; mefloquine at concentrations above 50 μg/ml or greater,dose-dependent potentiation of colistin efficacy
colistimethate,plasma half-lives relative to those of the colistin generated,[5],approximately half
same,antibacterial activity,P aeruginosa,non-active prodrug of colistin
O=[Te]([O-])[O-].[K+].[K+] [potassium tellurite],effect on CFU,"[1]; potassium tellurite 1.6 ug/ml, 3 hour time point",not or little affecting the CFU
same,growth inhibition,"[1]; potassium tellurite 1.6 ug/ml, 6 hours",stronger growth inhibition
same,sensitivity of iscS mutant,iscS mutant,sensitive
